Laboratory results as given in US20210246157A1, “CAMPTOTHECIN DERIVATIVES AND PREPARATION METHODS AND APPLICATIONS THEREOF” (priority 2018, published 2021).
Converted amounts (≈) assume the structure as drawn. Where two headings read alike, the source gives them in different places.

What was measured:
[1] = tested on: PC3; test: Cytotoxicity test (MTT, 72 h); details: Homo sapiens, PC-3, 72 h, read-out: 50% Inhibiting Concentration value (IC50)
Protocol: (§2) In order to investigate the antitumor activities of the compounds, a variety of tumor cell lines for test are selected. Cells at logarithmic growth period are inoculated in a 96-well plate overnight, then drugs with a certain gradient concentrations are added, and incubation is carried out in a cell culture chamber (5% CO2, 37° C.) for 72 h.

[2] = tested on: HT-29; test: Cytotoxicity test (MTT, 72 h); details: Homo sapiens, HT-29, 72 h, read-out: 50% Inhibiting Concentration value (IC50)
Protocol: (§3) Cells at logarithmic growth period are inoculated in a 96-well plate overnight, then drugs with a certain gradient concentrations are added, and incubation is carried out in a cell culture chamber (5% CO2, 37° C.) for 72 h.

[3] = tested on: HepG2; test: Cytotoxicity test (MTT, 72 h); details: Homo sapiens, HepG2, 72 h, read-out: 50% Inhibiting Concentration value (IC50)
Protocol: as §2

[4] = tested on: tumor; test: Multi-dose in vivo antitumor activity, tumor volume (Example 20); parameters: species or system mice; details: for Mouse Tumor Volume: caudal vein once every 2 days
Protocol: (§1) The drugs are administered through the caudal veins of mice once every 2 days for a total of 7 times.
Tumor volume is measured every three days from day 0. The maximum diameter (a) of the tumor is measured first, and then the longest radial line (b) perpendicular to the maximum diameter is measured, using mm as unit. Tumor volume is calculated according to the following formula: […]

[5] = tested on: TPC-1; test: Cytotoxicity test (MTT, 72 h); details: Homo sapiens, TPC1, 72 h, read-out: 50% Inhibiting Concentration value (IC50)
Protocol: as §3

[6] = tested on: K562; test: Cytotoxicity test (MTT, 72 h); details: Homo sapiens, K562, 72 h, read-out: 50% Inhibiting Concentration value (IC50)
Protocol: as §2

[7] = Multi-dose in vivo antitumor activity study, mouse weight (Example 20); parameters: species or system mice; details: caudal vein once every 2 days
Protocol: as §1
At the end of the treatment cycle, the orbital venous blood of the mice is collected for later blood routine test, the mice are killed by cervical dislocation method, and tumors are removed immediately and photographed. From day 0, the mice in each group are weighed every three days, and the weights are recorded. The weight average value of each group is calculated, and mouse weight variation curve is drawn according to statistical data. At the end of the treatment cycle, tumors are removed from anesthetized mice immediately and weighted, and the tumor weight of each group is recorded. The tumor inhibition rate (%) is calculated according to the following formula: […]

[8] = In vivo antitumor activity study, mouse weight (Example 19); parameters: species or system mice; details: 12.30 mg/kg i.v. once every three days
[9] = tested on: H1975; test: Cytotoxicity test (MTT, 72 h); details: Homo sapiens, NCI-H1975, 72 h, read-out: 50% Inhibiting Concentration value (IC50)
Protocol: as §2

[10] = tested on: PANC-1; test: Cytotoxicity test (MTT, 72 h); details: Homo sapiens, PANC-1, 72 h, read-out: 50% Inhibiting Concentration value (IC50)
Protocol: as §3

[11] = Solubility test, equilibrium method, UV-visible spectrophotometry; type: physicochemical; details: thermodynamic from solid
Protocol: The solubility test is carried out by equilibrium method. […] An appropriate amount of the compound is weighed and dissolved in 1 mL of methanol solution to prepare a control solution with a certain concentration (C0). The concentration of test solution is calculated according to the following formula: Cx=(Ax/A0)C0, wherein Cx is concentration of test solution, Ax is absorbance of test solution, C0 is concentration of control solution, and A0 is absorbance of control solution.

[12] = tested on: 143B; test: Cytotoxicity test (MTT, 72 h); details: Homo sapiens, read-out: 50% Inhibiting Concentration value (IC50)
Protocol: as §2

[13] = tested on: colon cancer cells SW-480; test: In vivo antitumor activity, tumor volume (Example 19); parameters: species or system mice; details: for Mouse Tumor Volume: 12.30 mg/kg i.v. once every three days, average, n = 6
[14] = tested on: SW-480; test: Cytotoxicity test (MTT, 72 h); details: Homo sapiens, SW480, 72 h, read-out: 50% Inhibiting Concentration value (IC50)
Protocol: as §3

[15] = day 0, high-dose group (H) 12.30 mg/kg
[16] = day 0, low-dose group (L) 3.075 mg/kg
[17] = day 0, medium-dose group (M) 6.15 mg/kg
[18] = day 3, high-dose group (H) 12.30 mg/kg
[19] = day 3, low-dose group (L) 3.075 mg/kg
[20] = day 3, medium-dose group (M) 6.15 mg/kg
[21] = day 6, high-dose group (H) 12.30 mg/kg
[22] = day 6, low-dose group (L) 3.075 mg/kg
[23] = day 6, medium-dose group (M) 6.15 mg/kg
[24] = day 9, high-dose group (H) 12.30 mg/kg
[25] = day 9, low-dose group (L) 3.075 mg/kg
[26] = day 9, medium-dose group (M) 6.15 mg/kg
[27] = day 12, high-dose group (H) 12.30 mg/kg
[28] = day 12, low-dose group (L) 3.075 mg/kg
[29] = day 12, medium-dose group (M) 6.15 mg/kg
[30] = day 15, high-dose group (H) 12.30 mg/kg
[31] = day 15, low-dose group (L) 3.075 mg/kg
[32] = day 15, medium-dose group (M) 6.15 mg/kg
[33] = day 18, high-dose group (H) 12.30 mg/kg
[34] = day 18, low-dose group (L) 3.075 mg/kg
[35] = day 18, medium-dose group (M) 6.15 mg/kg
[36] = day 21, high-dose group (H) 12.30 mg/kg
[37] = day 21, low-dose group (L) 3.075 mg/kg
[38] = day 21, medium-dose group (M) 6.15 mg/kg

`CCc1c2c(nc3ccc(OC(=O)NCCOCc4cn(CCO[C@H]5O[C@@H](CO)[C@H](O)[C@@H](O)[C@@H]5O)nn4)cc13)-c1cc3c(c(=O)n1C2)COC(=O)[C@]3(O)CC` [Compound 67] gave an IC50 [1] of 2020 nM, an IC50 [2] of 5190 nM and an IC50 [3] of 1050 nM. The “Mouse Tumor Volume” value [4, 15] was 121.62 mm^3, the “Mouse Tumor Volume” value [4, 16] was 125.58 mm^3 and the “Mouse Tumor Volume” value [4, 17] was 161.01 mm^3. For the same compound, the “Mouse Tumor Volume” value [4, 18] was 91.15 mm^3, the “Mouse Tumor Volume” value [4, 19] was 194.43 mm^3 and the “Mouse Tumor Volume” value [4, 20] was 168.50 mm^3. For the same compound, the “Mouse Tumor Volume” value [4, 21] was 96.67 mm^3, the “Mouse Tumor Volume” value [4, 22] was 197.42 mm^3 and the “Mouse Tumor Volume” value [4, 23] was 208.68 mm^3. The “Mouse Tumor Volume” value [4, 24] was 103.36 mm^3, the “Mouse Tumor Volume” value [4, 25] was 278.06 mm^3 and the “Mouse Tumor Volume” value [4, 26] was 220.90 mm^3. For the same compound, the “Mouse Tumor Volume” value [4, 27] was 110.74 mm^3, the “Mouse Tumor Volume” value [4, 28] was 420.38 mm^3 and the “Mouse Tumor Volume” value [4, 29] was 295.90 mm^3. For the same compound, the “Mouse Tumor Volume” value [4, 30] was 133.88 mm^3, the “Mouse Tumor Volume” value [4, 31] was 498.90 mm^3 and the “Mouse Tumor Volume” value [4, 32] was 378.20 mm^3. The “Mouse Tumor Volume” value [4, 33] was 116.64 mm^3, the “Mouse Tumor Volume” value [4, 34] was 587.60 mm^3 and the “Mouse Tumor Volume” value [4, 35] was 404.02 mm^3. For the same compound, the “Mouse Tumor Volume” value [4, 36] was 103.48 mm^3, the “Mouse Tumor Volume” value [4, 37] was 624.45 mm^3 and the “Mouse Tumor Volume” value [4, 38] was 394.44 mm^3. The “tumor inhibition effects of the high-dose groups compared with CPT-11 (in words)” value ([4]; high-dose groups, same dosage (10 mg/kg), p<0.001) was “better than that of positive control group CPT-11”, the “dose dependence of tumor inhibition (in words)” value ([4]; low, medium and high dose) was “dose-dependent” and the IC50 [5] was 8080 nM. For the same compound, the IC50 [6] was 196 nM, the “Mouse Weight” value [7, 15] was 17.04 g and the “Mouse Weight” value [7, 16] was 16.18 g. The “Mouse Weight” value [7, 17] was 18.28 g, the “Mouse Weight” value [7, 18] was 16.15 g and the “Mouse Weight” value [7, 19] was 16.28 g. The “Mouse Weight” value [7, 20] was 17.29 g, the “Mouse Weight” value [7, 21] was 16.88 g and the “Mouse Weight” value [7, 22] was 15.76 g. For the same compound, the “Mouse Weight” value [7, 23] was 16.82 g, the “Mouse Weight” value [7, 24] was 16.57 g and the “Mouse Weight” value [7, 25] was 16.28 g. For the same compound, the “Mouse Weight” value [7, 26] was 17.18 g, the “Mouse Weight” value [7, 27] was 16.06 g and the “Mouse Weight” value [7, 28] was 16.03 g. For the same compound, the “Mouse Weight” value [7, 29] was 16.74 g, the “Mouse Weight” value [7, 30] was 16.32 g and the “Mouse Weight” value [7, 31] was 16.04 g. For the same compound, the “Mouse Weight” value [7, 32] was 15.82 g, the “Mouse Weight” value [7, 33] was 17.36 g and the “Mouse Weight” value [7, 34] was 16.17 g. For the same compound, the “Mouse Weight” value [7, 35] was 16.27 g, the “Mouse Weight” value [7, 36] was 16.78 g and the “Mouse Weight” value [7, 37] was 16.48 g. For the same compound, the “Mouse Weight” value [7, 38] was 16.84 g, the “Mouse Weight” value ([8]; day 0) was 23.97 g and the “Mouse Weight” value ([8]; day 3) was 23.97 g. For the same compound, the “Mouse Weight” value ([8]; day 6) was 23.57 g, the “Mouse Weight” value ([8]; day 9) was 23.94 g and the “Mouse Weight” value ([8]; day 12) was 23.58 g. For the same compound, the “Mouse Weight” value ([8]; day 15) was 24.45 g, the “Mouse Weight” value ([8]; day 18) was 24.86 g and the “Mouse Weight” value ([8]; day 21) was 25.33 g. For the same compound, the IC50 [9] was 6730 nM, the IC50 [10] was 2910 nM and the solubility ([11]; aqueous buffer, PBS pH 7.4, read-out: Solubility in PBS (pH = 7.4)) was 2110 µg/mL (≈ 2750 µM). The solubility ([11]; aqueous with cosolvent or surfactant or cyclodextrin, 0.1% aqueous solution of Tween-80, read-out: Solubility in 0.1% Tween-80) was 1480 µg/mL (≈ 1930 µM), the solubility ([11]; saline or isotonic, normal saline, read-out: Solubility in Normal Saline (NS)) was 3350 µg/mL (≈ 4370 µM) and the solubility ([11]; water, read-out: Solubility in Water) was 1260 µg/mL (≈ 1650 µM). For the same compound, the IC50 [12] was 5610 nM, the “Mouse Tumor Volume” value ([13]; day 0) was 227.31 mm^3 and the “Mouse Tumor Volume” value ([13]; day 3) was 126.54 mm^3. The “Mouse Tumor Volume” value ([13]; day 6) was 142.84 mm^3, the “Mouse Tumor Volume” value ([13]; day 9) was 104.75 mm^3 and the “Mouse Tumor Volume” value ([13]; day 12) was 73.72 mm^3. For the same compound, the “Mouse Tumor Volume” value ([13]; day 15) was 43.74 mm^3, the “Mouse Tumor Volume” value ([13]; day 18) was 12.46 mm^3 and the “Mouse Tumor Volume” value ([13]; day 21) was 11.38 mm^3. For the same compound, the “inhibition rates on colon cancer cell SW-480 compared with CPT-11 (in words)” value ([13]; dosage two-thirds of the molar fraction of CPT-11) was “significantly higher inhibition rates” and the IC50 [14] was 251 nM.
